Patent publication US8697877B2, “Oxyindole derivatives with motilin receptor agonistic activity” (RaQualia Pharma Inc., priority 2009, dated 2014)

Target: T1, human motilin receptor (GPR38) (Homo sapiens, UniProt O43193)
T1 construct: expressed in transfected cells; host or cells: CHO-K1
Test: GPR38 (Motilin Receptor) Functional Assay, NFAT-beta-lactamase reporter in CHO-K1 cells
Format: cell-based
Procedure: The potencies and efficacies of the compounds of this invention for GPR38 can be determined by reporter assay performed on the human cloned receptor as described herein.
GPR38 (Motilin Receptor) Functional Assay
A CHO-K1 cell line stably transfected NFAT-beta-lactamase reporter and human motilin receptor gene was used. The cells were cultured in culture medium (Dulbecco's modified eagle medium containing 10% fetal bovine serum, 1 mM sodium pyruvate, 0.1 mM MEM nonessential amino acids, 25 mM HEPES buffer, 50 units/mL penicillin, 50 microg/mL streptomycin, 100 microg/mL zeocin, and 500 microg/mL G418). The cells were harvested with 0.05% trypsin EDTA and centrifuged. The cell pellets were resuspended in the culture medium and plated into a black/clear bottom 384-well plate at a density of 8000 cells per well, then incubated at 37° C. with 5% CO2 for over night (about 20 hours). On the day of assay, the culture medium was aspirated and 20 microL of assay medium (Dulbecco's modified eagle medium containing 100 units/mL penicillin and 100 microg/mL streptomycin) was added to each well, then the cell plates were placed in incubator at 37° C. with 5% CO2 for 1.5 hours. Compounds were prepared in 100% DMSO and these were diluted to 5× of final concentration with assay buffer (Hanks balanced salt solution, 20 mM HEPES, and 0.1% BSA), then dispensed into 384-well plate (5 microL/well). After incubation at 37° C. with 5% CO2 for 4.5 hours, CCF4-AM loading solution (Invitrogen Corp.) was added to each well. After incubation for 2 hours at room temperature, fluorescence intensities were measured by using plate reader FDSS (Hamamatsu Photonics K. K.) with excitation 400 nm, emission 465 nm/540 nm. Agonistic activity (EC50) was calculated from the sigmoidal dose-response curve using GraphPad Prism software (GraphPad Software, Inc.).

T1 sequence (O43193 whole entry): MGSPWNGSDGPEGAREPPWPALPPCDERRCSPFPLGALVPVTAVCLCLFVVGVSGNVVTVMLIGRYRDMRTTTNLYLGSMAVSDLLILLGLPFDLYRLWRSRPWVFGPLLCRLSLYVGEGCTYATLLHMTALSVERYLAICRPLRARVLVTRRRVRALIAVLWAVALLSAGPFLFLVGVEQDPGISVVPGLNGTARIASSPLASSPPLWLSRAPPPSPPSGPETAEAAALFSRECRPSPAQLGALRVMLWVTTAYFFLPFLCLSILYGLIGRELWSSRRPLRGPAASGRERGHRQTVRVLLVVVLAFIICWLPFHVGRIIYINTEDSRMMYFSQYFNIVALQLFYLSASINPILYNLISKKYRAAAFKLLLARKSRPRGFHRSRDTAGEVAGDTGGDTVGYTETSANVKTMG

Question: For `CC1(C)C(=O)N(C2CCN(C(=O)[C@H](CCc3ccccc3)NC(=O)[C@@H](N)C(C)(C)C)CC2)c2ccccc21` [Example 3, (S)-2-amino-N-((S)-1-(4-(3,3-dimethyl-2-oxoindolin-1-yl)piperidin-1-yl)-1-oxo-4-phenylbutan-2-yl)-3,3-dimethylbutanamide], which EC50 is on record?
Answer: ≤ 10 nM

Question: Which EC50 does the source give for `CC1(C)C(=O)N(C2CCN(C(=O)[C@H](Cc3ccccc3)NC(=O)[C@@H]3CCCNC3)CC2)c2ccccc21` [Example 82, (R)-N-((S)-1-(4-(3,3-dimethyl-2-oxoindolin-1-yl)piperidin-1-yl)-1-oxo-3-phenylpropan-2-yl) piperidine-3-carboxamide] here?
Answer: ≤ 10 nM

Question: `CC1(C)C(=O)N(C2CCN(C(=O)[C@H](Cc3ccccc3C(F)(F)F)NC(=O)C3CCNCC3)CC2)c2ccccc21` [Example 78, (S)-N-(1-(4-(3,3-dimethyl-2-oxoindolin-1-yl)piperidin-1-yl)-1-oxo-3-(2-(trifluoro-methyl)phenyl)propan-2-yl)piperidine-4-carboxamide] was tested. Which EC50 did it give?
Answer: ≤ 10 nM

Question: Which EC50 does the source give for `CC1(C)C(=O)N(C2CCN(C(=O)[C@H](CCc3ccccc3)NC(=O)N[C@H]3CCNC3)CC2)c2ccccc21` [Example 57, 1-((S)-1-(4-(3,3-dimethyl-2-oxo-indolin-1-yl)piperidin-1-yl)-1-oxo-4-phenylbutan-2-yl)-3-((S)-pyrrolidin-3-yl)urea] here?
Answer: ≤ 10 nM

Question: How did the EC50 turn out when `CN[C@@H]1CC[C@H](C(=O)N[C@@H](Cc2ccc(Cl)cc2)C(=O)N2CCC(N3C(=O)C(C)(C)c4ccccc43)CC2)C1` [Example 21, (1S,3R)—N—((S)-3-(4-chlorophenyl)-1-(4-(3,3-dimethyl-2-oxoindolin-1-yl)piperidin-1-yl)-1-oxopropan-2-yl)-3-(methylamino)cyclopentanecarboxamide] was run?
Answer: ≤ 10 nM

Question: `COCCN(C)CCC(=O)N[C@@H](CCc1ccccc1)C(=O)N1CCC(N2C(=O)C(C)(C)c3ccccc32)CC1` [Example 15, (S)-N-(1-(4-(3,3-dimethyl-2-oxoindolin-1-yl)piperidin-1-yl)-1-oxo-4-phenylbutan-2-yl)-3-((2-methoxyethyl)(methyl)amino) propanamide] was tested. Which EC50 did it give?
Answer: ≤ 10 nM

Question: `CN[C@@H]1CC[C@H](C(=O)N[C@@H](Cc2cccc(C(F)(F)F)c2)C(=O)N2CCC(N3C(=O)C(C)(C)c4ccccc43)CC2)C1` [Example 35, (1S,3R)-N-((S)-1-(4-(3,3-dimethyl-2-oxoindolin-1-yl)piperidin-1-yl)-1-oxo-3-(3-(trifluoromethyl)phenyl)propan-2-yl)-3-(methylamino)cyclo-pentanecarboxamide] was tested. Which EC50 did it give?
Answer: ≤ 10 nM

Question: With `CN[C@H]1CCN(C(=O)N[C@@H](Cc2ccccc2Cl)C(=O)N2CCC(N3C(=O)C(C)(C)c4ccccc43)CC2)C1` [Example 93, (S)-N-((S)-3-(2-chloro-phenyl)-1-(4-(3,3-dimethyl-2-oxoindolin-1-yl)piperidin-1-yl)-1-oxopropan-2-yl)-3-(methylamino)pyrrolidine-1-carboxamide] as the compound, how does the EC50 read?
Answer: ≤ 10 nM

Question: How did the EC50 turn out when `CC(C)(N)CNC(=O)N[C@@H](CCc1ccccc1)C(=O)N1CCC(N2C(=O)C(C)(C)c3ccccc32)CC1` [Example 62, (S)-1-(2-amino-2-methylpropyl)-3-(1-(4-(3,3-dimethyl-2-oxoindolin-1-yl)piperidin-1-yl)-1-oxo-4-phenyl-butan-2-yl)urea] was run?
Answer: ≤ 10 nM

Question: With `CN[C@@H]1CC[C@H](C(=O)N[C@@H](Cc2ccccc2F)C(=O)N2CCC(N3C(=O)C(C)(C)c4ccccc43)CC2)C1` [Example 32, (1S,3R)-N-((S)-1-(4-(3,3-dimethyl-2-oxoindolin-1-yl)piperidin-1-yl)-3-(2-fluorophenyl)-1-oxopropan-2-yl)-3-(methylamino)cyclopentane-carboxamide] as the compound, how does the EC50 read?
Answer: ≤ 10 nM

Question: Which EC50 does the source give for `CC1(C)C(=O)N(C2CCN(C(=O)[C@H](CCc3ccccc3)NC(=O)[C@@H]3CCCCN3)CC2)c2ccccc21` [Example 2, (S)-N-((S)-1-(4-(3,3-dimethyl-2-oxoindolin-1-yl)piperidin-1-yl)-1-oxo-4-phenylbutan-2-yl)piperidine-2-carboxamide] here?
Answer: ≤ 10 nM

Question: `CC1(C)C(=O)N(C2CCN(C(=O)[C@H](CCc3ccccc3)NC(=O)CCNC3CCCC3)CC2)c2ccccc21` [Example 14, (S)-3-(cyclopentylamino)-N-(1-(4-(3,3-dimethyl-2-oxoindolin-1-yl)piperidin-1-yl)-1-oxo-4-phenylbutan-2-yl)propanamide] was tested. Which EC50 did it give?
Answer: ≤ 10 nM

Question: With `CC1(C)C(=O)N(C2CCN(C(=O)[C@H](CCc3ccccc3)NC(=O)CC3(N)CCCC3)CC2)c2ccccc21` [Example 12, (S)-2-(1-aminocyclopentyl)-N-(1-(4-(3,3-dimethyl-2-oxoindolin-1-yl)piperidin-1-yl)-1-oxo-4-phenylbutan-2-yl)acetamide] as the compound, how does the EC50 read?
Answer: ≤ 10 nM

Question: Which EC50 does the source give for `CC1(C)C(=O)N(C2CCN(C(=O)[C@H](CCc3ccccc3)NC(=O)NC[C@@H]3CCNC3)CC2)c2ccccc21` [Example 53, 1-((S)-1-(4-(3,3-dimethyl-2-oxo-indolin-1-yl)piperidin-1-yl)-1-oxo-4-phenylbutan-2-yl)-3-((R)-pyrrolidin-3-ylmethyl)urea] here?
Answer: ≤ 10 nM

Question: With `CNC(C)(C)CC(=O)N[C@@H](CCc1ccccc1)C(=O)N1CCC(N2C(=O)C(C)(C)c3ccccc32)CC1` [Example 13, (S)-N-(1-(4-(3,3-dimethyl-2-oxoindolin-1-yl)piperidln-1-yl)-1-oxo-4-phenylbutan-2-yl)-3-methyl-3-(methylamino) butanamide] as the compound, how does the EC50 read?
Answer: ≤ 10 nM

Question: For `CC1(C)C(=O)N(C2CCN(C(=O)[C@H](CCc3ccccc3)NC(=O)N[C@@H]3CCCNC3)CC2)c2ccccc21` [Example 49, 1-((S)-1-(4-(3,3-dimethyl-2-oxo-indolin-1-yl)piperidin-1-yl)-1-oxo-4-phenylbutan-2-yl)-3-((R)-piperidin-3-yl)urea], which EC50 is on record?
Answer: ≤ 10 nM

Question: `CC1(C)C(=O)N(C2CCN(C(=O)[C@H](CCc3ccccc3)NC(=O)[C@@H]3CCCNC3)CC2)c2ccc(F)cc21` [Example 44, (R)—N—((S)-1-(4-(5-fluoro-3,3-dimethyl-2-oxoindolin-1-yl)piperidin-1-yl)-1-oxo-4-phenylbutan-2-yl)piperidine-3-carboxamide] was tested. Which EC50 did it give?
Answer: ≤ 10 nM

Question: With `CC1(C)C(=O)N(C2CCN(C(=O)[C@H](CCc3ccccc3)NC(=O)NC[C@@H]3CCCCN3)CC2)c2ccccc21` [Example 60, 1-((S)-1-(4-(3,3-dimethyl-2-oxo-indolin-1-yl)piperidin-1-yl)-1-oxo-4-phenylbutan-2-yl)-3-((S)-piperidin-2-ylmethyl)urea] as the compound, how does the EC50 read?
Answer: ≤ 10 nM

Question: For `CC1(C)C(=O)N(C2CCN(C(=O)[C@H](CCc3ccccc3)NC(=O)CC3(N)CCC3)CC2)c2ccccc21` [Example 6, (S)-2-(1-aminocyclobutyl)-N-(1-(4-(3,3-dimethyl-2-oxoindolin-1-yl)piperidin-1-yl)-1-oxo-4-phenylbutan-2-yl)acetamide], which EC50 is on record?
Answer: ≤ 10 nM

Question: Which EC50 does the source give for `CN1CCC(C)(NC(=O)N[C@@H](CCc2ccccc2)C(=O)N2CCC(N3C(=O)C(C)(C)c4ccccc43)CC2)CC1` [Example 69, (S)-1-(1-(4-(3,3-dimethyl-2-oxo-indolin-1-yl)piperidin-1-yl)-1-oxo-4-phenylbutan-2-yl)-3-(1,4-dimethylpiperidin-4-yl)urea] here?
Answer: ≤ 10 nM

Question: With `CN[C@@H]1CC[C@H](C(=O)N[C@@H](CCc2ccccc2)C(=O)N2CCC(N3C(=O)C(C)(C)c4cc(F)ccc43)CC2)C1` [Example 45, (1S,3R)-N-((S)-1-(4-(5-fluoro-3,3-dimethyl-2-oxoindolin-1-yl)piperidin-1-yl)-1-oxo-4-phenylbutan-2-yl)-3-(methylamino)cyclopentane-carboxamide] as the compound, how does the EC50 read?
Answer: ≤ 10 nM

Question: With `C[C@@H]1CN(C(=O)N[C@@H](CCc2ccccc2)C(=O)N2CCC(N3C(=O)C(C)(C)c4ccccc43)CC2)CCN1` [Example 54, (R)-N-((S)-1-(4-(3,3-dimethyl-2-oxoindolin-1-yl)piperidin-1-yl)-1-oxo-4-phenylbutan-2-yl)-3-methyl-piperazine-1-carboxamide] as the compound, how does the EC50 read?
Answer: ≤ 10 nM

Question: For `CN[C@@H]1CC[C@H](C(=O)N[C@@H](Cc2ccccc2)C(=O)N2CCC(N3C(=O)C(C)(C)c4ccccc43)CC2)C1` [Example 30, (1S,3R)-N-((S)-1-(4-(3,3-dimethyl-2-oxoindolin-1-yl)piperidin-1-yl)-1-oxo-3-phenylpropan-2-yl)-3-(methylamino) cyclopentanecarboxamide], which EC50 is on record?
Answer: ≤ 10 nM

Question: `CN[C@@H]1CC[C@H](C(=O)N[C@@H](Cc2cccc(F)c2)C(=O)N2CCC(N3C(=O)C(C)(C)c4ccccc43)CC2)C1` [Example 28, (1S,3R)-N-((S)-1-(4-(3,3-dimethyl-2-oxoindolin-1-yl)piperidin-1-yl)-3-(3-fluorophenyl)-1-oxopropan-2-yl)-3-(methylamino)cyclopentane-carboxamide] was tested. Which EC50 did it give?
Answer: ≤ 10 nM

Question: `CN[C@@H]1CC[C@H](C(=O)N[C@@H](CC2CCCCC2)C(=O)N2CCC(N3C(=O)C(C)(C)c4ccccc43)CC2)C1` [Example 23, (1S,3R)-N-((S)-3-cyclohexyl-1-(4-(3,3-dimethyl-2-oxoindolin-1-yl)piperidin-1-yl)-1-oxopropan-2-yl)-3-(methyl-amino)cyclopentanecarboxamide] was tested. Which EC50 did it give?
Answer: ≤ 10 nM
